According to patent US20260347364A1, “PYRAZOLO[4,3-F]QUINAZOLINE DERIVATIVES AS MODULATORS OF G12D MUTANT KRAS USEFUL FOR THE TREATMENT OF CANCER” (JAZZ PHARMACEUTICALS IRELAND LTD., priority 2023, published 2026):

How the values were obtained:
[1] = biological target: T1, KRAS WT (Homo sapiens, UniProt P01116); test: HTRF nucleotide exchange assay, KRAS WT; assay type: biochemical; settings: HTRF nucleotide exchange assay (NEA), class symbols
T1 construct: aa1-188 KRAS WT

[2] = biological target: T2, KRAS G12D (Homo sapiens, UniProt P01116, G12D); test: HTRF nucleotide exchange assay, KRAS G12D; assay type: biochemical; settings: HTRF nucleotide exchange assay (NEA), class symbols
T2 construct: aa1-188 KRAS WT, HRAS WT, NRAS WT, or KRAS containing the G12D
T2 sequence (P01116 1-188 isoform P01116-2 G12D): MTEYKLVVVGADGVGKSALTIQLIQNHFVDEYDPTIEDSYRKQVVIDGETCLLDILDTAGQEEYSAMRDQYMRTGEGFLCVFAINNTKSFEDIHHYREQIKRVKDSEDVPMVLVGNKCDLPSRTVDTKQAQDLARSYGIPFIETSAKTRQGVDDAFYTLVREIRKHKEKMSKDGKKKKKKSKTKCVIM

T1 sequence (P01116 1-188 isoform P01116-2): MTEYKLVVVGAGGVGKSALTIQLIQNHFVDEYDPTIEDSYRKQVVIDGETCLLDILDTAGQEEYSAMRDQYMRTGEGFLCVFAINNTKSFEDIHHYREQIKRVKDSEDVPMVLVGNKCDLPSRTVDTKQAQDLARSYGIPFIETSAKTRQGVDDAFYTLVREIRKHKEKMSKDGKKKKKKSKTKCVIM

Row | IC50 [1] [nM] | IC50 [2] [nM] | SMILES
1 | ≤ 10 | ≤ 10 | CCc1c(F)ccc2cc(O)cc(-c3c(C)c4nc(OCC56CCCN5CCC6)nc(N5CCC[C@@](C)(O)C5)c4c4cn(C)nc34)c12 [Example 205, (3R)-1-[4-(8-ethyl-7-fluoro-3-hydroxy-1-naphthyl)-7-(1,2,3,5,6,7-hexahydropyrrolizin-8-ylmethoxy)-2,5-dimethyl-pyrazolo[4,3-f]quinazolin-9-yl]-3-methyl-piperidin-3-ol]
2 | 10 to 100 | ≤ 10 | CCc1c(F)ccc2cc(O)cc(-c3c(F)c4nc(OCC5(CF)COC5)nc(N5CCCn6nc(C(=O)N(C)C)cc6C5)c4c4cn(C)nc34)c12 [Example 206, 5-[4-(8-ethyl-7-fluoro-3-hydroxy-1-naphthyl)-5-fluoro-7-[[3-(fluoromethyl)oxetan-3-yl]methoxy]-2-methyl-pyrazolo[4,3-f]quinazolin-9-yl]-N,N-dimethyl-4,6,7,8-tetrahydropyrazolo[1,5-a][1,4]diazepine-2-carboxamide]
3 | 10 to 100 | ≤ 10 | CCc1c(F)ccc2cc(O)cc(-c3c(F)c4nc(OCC5(C#N)CCOC5)nc(N5CCCn6nc(C(=O)N(C)C)cc6C5)c4c4cn(C)nc34)c12 (stereo not drawn) [Example 207, 5-[7-[(3-cyanotetrahydrofuran-3-yl)methoxy]-4-(8-ethyl-7-fluoro-3-hydroxy-1-naphthyl)-5-fluoro-2-methyl-pyrazolo[4,3-f]quinazolin-9-yl]-N,N-dimethyl-4,6,7,8-tetrahydropyrazolo[1,5-a][1,4]diazepine-2-carboxamide]
4 | 10 to 100 | ≤ 10 | CCc1c(F)ccc2cc(O)cc(-c3c(F)c4nc(OCC56COC(COC)(C5)C6)nc(N5CCCn6nc(C(=O)N(C)C)cc6C5)c4c4cn(C)nc34)c12 [Example 208, 5-[4-(8-ethyl-7-fluoro-3-hydroxy-1-naphthyl)-5-fluoro-7-[[1-(methoxymethyl)-2-oxabicyclo[2.1.1]hexan-4-yl]methoxy]-2-methyl-pyrazolo[4,3-f]quinazolin-9-yl]-N,N-dimethyl-4,6,7,8-tetrahydropyrazolo[1,5-a][1,4]diazepine-2-carboxamide]
5 | ≤ 10 | ≤ 10 | CCc1c(F)ccc2cc(O)cc(-c3c(C)c4nc(OC[C@@]56CCCN5C[C@H](F)C6)nc(N5CCCn6nc(C(=O)N7CCOCC7)cc6C5)c4c4cn(C)nc34)c12 [Example 209, [5-[4-(8-ethyl-7-fluoro-3-hydroxy-1-naphthyl)-7-[[(2R,8S)-2-fluoro-1,2,3,5,6,7-hexahydropyrrolizin-8-yl]methoxy]-2,5-dimethyl-pyrazolo[4,3-f]quinazolin-9-yl]-4,6,7,8-tetrahydropyrazolo[1,5-a][1,4]diazepin-2-yl]-morpholino-methanone]
6 | 10 to 100 | 10 to 100 | CCc1c(F)ccc2cc(O)cc(-c3cc4nc(OC[C@@]56CCCN5C[C@H](F)C6)nc(N5CC6CCC(C5)C6C#N)c4c4cn(C)nc34)c12 (stereo partly drawn) [Example 210, 3-[4-(8-ethyl-7-fluoro-3-hydroxy-1-naphthyl)-7-[[(2R,8S)-2-fluoro-1,2,3,5,6,7-hexahydropyrrolizin-8-yl]methoxy]-2-methyl-pyrazolo[4,3-f]quinazolin-9-yl]-3-azabicyclo[3.2.1]octane-8-carbonitrile]
7 | ≤ 10 | ≤ 10 | CCc1c(F)ccc2cc(O)cc(-c3c(F)c4nc(OCC5(CN(C)CC)CC5)nc(N5CCOCC(C)(O)C5)c4c4cn(C)nc34)c12 (stereo not drawn) [Example 212, 4-[4-(8-ethyl-7-fluoro-3-hydroxy-1-naphthyl)-7-[[1-[[ethyl(methyl)amino]methyl]cyclopropyl]methoxy]-5-fluoro-2-methyl-pyrazolo[4,3-f]quinazolin-9-yl]-6-methyl-1,4-oxazepan-6-ol]
8 | ≤ 10 | ≤ 10 | CCc1c(F)ccc2cc(O)cc(-c3c(F)c4nc(OCC5(CN6CCC(O)CC6)CC5)nc(N5CCOCC(C)(O)C5)c4c4cn(C)nc34)c12 (stereo not drawn) [Example 213, 4-[4-(8-ethyl-7-fluoro-3-hydroxy-1-naphthyl)-5-fluoro-7-[[1-[(4-hydroxy-1-piperidyl)methyl]cyclopropyl]methoxy]-2-methyl-pyrazolo[4,3-f]quinazolin-9-yl]-6-methyl-1,4-oxazepan-6-ol]
9 | ≤ 10 | ≤ 10 | CCc1c(F)ccc2cc(O)cc(-c3c(F)c4nc(OCC5(CN6CCC6)CC5)nc(N5CCOCC(C)(O)C5)c4c4cn(C)nc34)c12 (stereo not drawn) [Example 214, 4-[7-[[1-(azetidin-1-ylmethyl)cyclopropyl]methoxy]-4-(8-ethyl-7-fluoro-3-hydroxy-1-naphthyl)-5-fluoro-2-methyl-pyrazolo[4,3-f]quinazolin-9-yl]-6-methyl-1,4-oxazepan-6-ol]
10 | 100 to 10000 | 10 to 100 | CCc1c(F)ccc2cc(O)cc(-c3c(C)c4nc(OCC5(CF)COC5)nc(N5CCCn6nc(C(=O)N(C)C)cc6C5)c4c4cn(C)nc34)c12 [Example 215]
11 | ≤ 10 | ≤ 10 | CCc1c(F)ccc2cc(O)cc(-c3c(C)c4nc(OC[C@@]56CCCN5C[C@H](F)C6)nc(N5CC6CCC5CN6)c4c4cn(C)nc34)c12 (stereo partly drawn) [Example 216, 4-[9-(2,5-diazabicyclo[2.2.2]octan-2-yl)-2,5-dimethyl-7-[[(2R,8S)-2-fluoro-1,2,3,5,6,7-hexahydropyrrolizin-8-yl]methoxy]pyrazolo[4,3-f]quinazolin-4-yl]-5-ethyl-6-fluoro-naphthalen-2-ol]
12 | ≤ 10 | ≤ 10 | CCc1c(F)ccc2cc(O)cc(-c3c(F)c4nc(OCC5(CN6CC7CCC(C6)O7)CC5)nc(N5CCOCC(C)(O)C5)c4c4cn(C)nc34)c12 (stereo not drawn) [Example 217, 4-[4-(8-ethyl-7-fluoro-3-hydroxy-1-naphthyl)-5-fluoro-2-methyl-7-[[1-(8-oxa-3-azabicyclo[3.2.1]octan-3-ylmethyl)cyclopropyl]methoxy]pyrazolo[4,3-f]quinazolin-9-yl]-6-methyl-1,4-oxazepan-6-ol]
13 | ≤ 10 | ≤ 10 | CCc1c(F)ccc2cc(O)cc(-c3c(F)c4nc(OCC5(CN6CCC(C(F)(F)F)CC6)CC5)nc(N5CCOCC(C)(O)C5)c4c4cn(C)nc34)c12 (stereo not drawn) [Example 218, 4-[4-(8-ethyl-7-fluoro-3-hydroxy-1-naphthyl)-5-fluoro-2-methyl-7-[[1-[[4-(trifluoromethyl)-1-piperidyl]methyl]cyclopropyl]methoxy]pyrazolo[4,3-f]quinazolin-9-yl]-6-methyl-1,4-oxazepan-6-ol]
14 | 100 to 10000 | 100 to 10000 | CCc1c(F)ccc2cc(O)cc(-c3c(F)c4nc(OCC5(CN6CCOC(C(F)(F)F)C6)CC5)nc(N5CCOCC(C)(O)C5)c4c4cn(C)nc34)c12 (stereo not drawn) [Example 219, 4-[4-(8-ethyl-7-fluoro-3-hydroxy-1-naphthyl)-5-fluoro-2-methyl-7-[[1-[[2-(trifluoromethyl)morpholin-4-yl]methyl]cyclopropyl]methoxy]pyrazolo[4,3-f]quinazolin-9-yl]-6-methyl-1,4-oxazepan-6-ol]
15 | ≤ 10 | ≤ 10 | CCc1c(F)ccc2cc(O)cc(-c3c(F)c4nc(OCC5(CN6CC7CC7C6)CC5)nc(N5CCOCC(C)(O)C5)c4c4cn(C)nc34)c12 (stereo not drawn) [Example 221, 4-[7-[[1-(3-azabicyclo[3.1.0]hexan-3-ylmethyl)cyclopropyl]methoxy]-4-(8-ethyl-7-fluoro-3-hydroxy-1-naphthyl)-5-fluoro-2-methyl-pyrazolo[4,3-f]quinazolin-9-yl]-6-methyl-1,4-oxazepan-6-ol]
